Test results reported in patent US12252524B2, “GIP/GLP1 co-agonist compounds” (Eli Lilly and Company, priority 2018, dated 2025).
Numbered stars: 1 amine (or outer) side, 2 acyl side, 3 side chain; on linkers, the order of the positions; unused ones are H or OH. Square brackets hold non-standard residues; d marks the D form. Side chains are listed from the residue outwards. Peptide text beside a SMILES is read from it. * marks the point of attachment. C20 diacid = O=C(O)CCCCCCCCCCCCCCCCCCC(=O)*; γGlu = O=C(O)[C@H](CCC(=O)[*:2])N[*:1]; αMeF = C[C@](N)(Cc1ccccc1)C(=O)O; αMeL = CC(C)C[C@](C)(N)C(=O)O; AEEA = NCCOCCOCC(=O)O; Aib = CC(C)(N)C(=O)O

Legend:
[1] = biological target: human GLP-1 receptor (GLP-1R) (Homo sapiens, UniProt P43220); experiment: cAMP pharmacological functional assay in presence of casein, hGLP-1R; assay type: cell-based; settings: HEK293 cells expressing hGLP-1R, 0.1% Casein, geometric mean; read-out: hGLP1R cAMP Rel EC50 nM (SEM, n)
Chain of human GLP-1 receptor (GLP-1R) (P43220 24-463): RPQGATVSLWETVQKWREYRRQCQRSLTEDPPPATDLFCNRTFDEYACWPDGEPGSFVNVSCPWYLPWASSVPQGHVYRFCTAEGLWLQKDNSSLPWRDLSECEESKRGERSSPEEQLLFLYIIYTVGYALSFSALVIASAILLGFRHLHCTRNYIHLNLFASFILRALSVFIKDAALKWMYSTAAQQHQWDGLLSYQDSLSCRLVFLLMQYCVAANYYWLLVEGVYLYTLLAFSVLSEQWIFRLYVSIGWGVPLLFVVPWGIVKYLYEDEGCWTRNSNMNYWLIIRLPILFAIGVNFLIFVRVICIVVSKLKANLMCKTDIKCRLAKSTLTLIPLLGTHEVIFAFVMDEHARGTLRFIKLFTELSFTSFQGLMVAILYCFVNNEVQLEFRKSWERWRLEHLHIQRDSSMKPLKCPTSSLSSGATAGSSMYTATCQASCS

[2] = biological target: T1, gastric inhibitory peptide receptor (GIPR) (Homo sapiens, UniProt P48546); experiment: cAMP pharmacological functional assay in presence of casein, hGIPR; assay type: cell-based; settings: HEK293 cells expressing hGIPR, 0.1% Casein, geometric mean; read-out: hGIPR cAMP Rel EC50 nM (SEM, n)
T1 sequence (P48546 22-466): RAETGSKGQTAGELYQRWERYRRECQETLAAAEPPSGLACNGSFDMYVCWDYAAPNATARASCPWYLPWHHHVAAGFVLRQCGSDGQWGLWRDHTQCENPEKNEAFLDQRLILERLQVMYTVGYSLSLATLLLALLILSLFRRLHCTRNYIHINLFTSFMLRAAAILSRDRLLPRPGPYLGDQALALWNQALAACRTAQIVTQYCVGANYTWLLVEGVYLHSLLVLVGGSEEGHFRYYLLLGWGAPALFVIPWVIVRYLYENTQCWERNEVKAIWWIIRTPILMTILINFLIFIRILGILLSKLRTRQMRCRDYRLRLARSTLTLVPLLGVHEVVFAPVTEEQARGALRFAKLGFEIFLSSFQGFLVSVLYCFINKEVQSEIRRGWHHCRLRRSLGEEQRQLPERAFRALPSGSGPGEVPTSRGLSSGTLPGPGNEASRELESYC

CC[C@H](C)[C@H](NC(=O)[C@H](CCCCN)NC(=O)[C@H](CC(C)C)NC(=O)[C@H](CC(C)C)NC(=O)[C@@H](NC(=O)[C@H](CO)NC(=O)[C@H](Cc1ccc(O)cc1)NC(=O)[C@H](CC(=O)O)NC(=O)[C@H](CO)NC(=O)[C@@H](NC(=O)[C@H](Cc1ccccc1)NC(=O)[C@@H](NC(=O)CNC(=O)[C@H](CCC(=O)O)NC(=O)C(C)(C)NC(=O)[C@@H](N)Cc1ccc(O)cc1)[C@@H](C)O)[C@@H](C)O)[C@@H](C)CC)C(=O)N[C@@H](C)C(=O)N[C@@H](CCC(N)=O)C(=O)NC(C)(C)C(=O)N[C@@H](C)C(=O)N[C@@H](Cc1ccccc1)C(=O)N[C@H](C(=O)N[C@@H](CCC(=O)O)C(=O)N[C@@H](Cc1ccc(O)cc1)C(=O)N[C@@H](CC(C)C)C(=O)N[C@H](C(=O)N[C@@H](CCC(=O)O)C(=O)NCC(=O)NCC(=O)N1CCC[C@H]1C(=O)N[C@@H](CO)C(=O)N[C@@H](CO)C(=O)NCC(=O)N[C@@H](C)C(=O)N1CCC[C@H]1C(=O)N1CCC[C@H]1C(=O)N[C@@H](CCCCNC(=O)COCCOCCNC(=O)COCCOCCNC(=O)CC[C@H](NC(=O)CCCCCCCCCCCCCCCCCCC(=O)O)C(=O)O)C(=O)N[C@@H](CO)C(N)=O)[C@@H](C)CC)[C@@H](C)CC [Example 77] (H-Y[Aib]EGTFTSDYSILLKIAQ[Aib]AFIEYLIEGGPSSGAPPK([AEEA-AEEA-γGlu-C20 diacid])S-NH2)
EC50 [1]: > 2000 nM
EC50 [2]: 135 nM

CC[C@H](C)[C@H](NC(=O)[C@H](CCCCN)NC(=O)[C@H](CC(=O)O)NC(=O)[C@H](CC(C)C)NC(=O)[C@H](CC(C)C)NC(=O)[C@@H](NC(=O)[C@H](CO)NC(=O)[C@H](CCCCNC(=O)COCCOCCNC(=O)COCCOCCNC(=O)CC[C@H](NC(=O)CCCCCCCCCCCCCCCCCCC(=O)O)C(=O)O)NC(=O)[C@H](CC(=O)O)NC(=O)[C@H](CO)NC(=O)[C@@H](NC(=O)[C@](C)(Cc1ccccc1)NC(=O)[C@@H](NC(=O)CNC(=O)[C@H](CCC(=O)O)NC(=O)C(C)(C)NC(=O)[C@@H](N)Cc1ccc(O)cc1)[C@@H](C)O)[C@@H](C)O)[C@@H](C)CC)C(=O)N[C@@H](C)C(=O)N[C@@H](CCC(N)=O)C(=O)NC(C)(C)C(=O)N[C@@H](C)C(=O)N[C@@H](Cc1ccccc1)C(=O)N[C@H](C(=O)N[C@@H](CCC(=O)O)C(=O)N[C@@H](Cc1ccc(O)cc1)C(=O)N[C@@H](CC(C)C)C(=O)N[C@H](C(=O)N[C@@H](CCC(=O)O)C(=O)NCC(=O)NCC(N)=O)[C@@H](C)CC)[C@@H](C)CC [Example 92] (H-Y[Aib]EGT[αMeF]TSDK([AEEA-AEEA-γGlu-C20 diacid])SILLDKIAQ[Aib]AFIEYLIEGG-NH2)
EC50 [1]: 0.257 nM
EC50 [2]: 0.338 nM

CC[C@H](C)[C@H](NC(=O)[C@H](CCCCN)NC(=O)[C@H](CC(=O)O)NC(=O)[C@H](CC(C)C)NC(=O)[C@H](CC(C)C)NC(=O)[C@@H](NC(=O)[C@H](CO)NC(=O)[C@H](Cc1ccc(O)cc1)NC(=O)[C@H](CC(=O)O)NC(=O)[C@H](CO)NC(=O)[C@@H](NC(=O)[C@](C)(Cc1ccccc1)NC(=O)[C@@H](NC(=O)CNC(=O)[C@H](CCC(=O)O)NC(=O)C(C)(C)NC(=O)[C@@H](N)Cc1ccc(O)cc1)[C@@H](C)O)[C@@H](C)O)[C@@H](C)CC)C(=O)N[C@@H](C)C(=O)N[C@@H](CCC(N)=O)C(=O)NC(C)(C)C(=O)N[C@@H](CCCCNC(=O)COCCOCCNC(=O)COCCOCCNC(=O)CC[C@H](NC(=O)CCCCCCCCCCCCCCCCCCC(=O)O)C(=O)O)C(=O)N[C@@H](Cc1ccccc1)C(=O)N[C@H](C(=O)N[C@@H](CCC(=O)O)C(=O)N[C@@H](Cc1ccc(O)cc1)C(=O)N[C@@H](CC(C)C)C(=O)N[C@H](C(=O)N[C@@H](CCC(=O)O)C(=O)NCC(=O)NCC(N)=O)[C@@H](C)CC)[C@@H](C)CC [Example 94] (H-Y[Aib]EGT[αMeF]TSDYSILLDKIAQ[Aib]K([AEEA-AEEA-γGlu-C20 diacid])FIEYLIEGG-NH2)
EC50 [1]: 0.338 nM
EC50 [2]: 0.425 nM

CC[C@H](C)[C@H](NC(=O)[C@H](CCCCN)NC(=O)[C@H](CC(=O)O)NC(=O)[C@H](CC(C)C)NC(=O)[C@H](CC(C)C)NC(=O)[C@@H](NC(=O)[C@H](CO)NC(=O)[C@H](Cc1ccc(O)cc1)NC(=O)[C@H](CC(=O)O)NC(=O)[C@H](CO)NC(=O)[C@@H](NC(=O)[C@](C)(Cc1ccccc1)NC(=O)[C@@H](NC(=O)CNC(=O)[C@H](CCC(=O)O)NC(=O)C(C)(C)NC(=O)[C@@H](N)Cc1ccc(O)cc1)[C@@H](C)O)[C@@H](C)O)[C@@H](C)CC)C(=O)N[C@@H](C)C(=O)N[C@@H](CCC(N)=O)C(=O)NC(C)(C)C(=O)N[C@@H](C)C(=O)N[C@@H](Cc1ccccc1)C(=O)N[C@H](C(=O)N[C@@H](CCC(=O)O)C(=O)N[C@@H](Cc1ccc(O)cc1)C(=O)N[C@@H](CC(C)C)C(=O)N[C@H](C(=O)N[C@@H](CCCCNC(=O)COCCOCCNC(=O)COCCOCCNC(=O)CC[C@H](NC(=O)CCCCCCCCCCCCCCCCCCC(=O)O)C(=O)O)C(=O)NCC(=O)NCC(N)=O)[C@@H](C)CC)[C@@H](C)CC [Example 95] (H-Y[Aib]EGT[αMeF]TSDYSILLDKIAQ[Aib]AFIEYLIK([AEEA-AEEA-γGlu-C20 diacid])GG-NH2)
EC50 [1]: 1.01 nM
EC50 [2]: 1.17 nM

CC[C@H](C)[C@H](NC(=O)[C@H](CCCCN)NC(=O)[C@H](CC(=O)O)NC(=O)[C@H](CC(C)C)NC(=O)[C@](C)(CC(C)C)NC(=O)[C@@H](NC(=O)[C@H](CO)NC(=O)[C@H](CCCCNC(=O)COCCOCCNC(=O)COCCOCCNC(=O)CC[C@H](NC(=O)CCCCCCCCCCCCCCCCCCC(=O)O)C(=O)O)NC(=O)[C@H](CC(=O)O)NC(=O)[C@H](CO)NC(=O)[C@@H](NC(=O)[C@H](Cc1ccccc1)NC(=O)[C@@H](NC(=O)CNC(=O)[C@H](CCC(=O)O)NC(=O)C(C)(C)NC(=O)[C@@H](N)Cc1ccc(O)cc1)[C@@H](C)O)[C@@H](C)O)[C@@H](C)CC)C(=O)N[C@@H](C)C(=O)N[C@@H](CCC(N)=O)C(=O)NC(C)(C)C(=O)N[C@@H](C)C(=O)N[C@@H](Cc1ccccc1)C(=O)N[C@H](C(=O)N[C@@H](CCC(=O)O)C(=O)N[C@@H](Cc1ccc(O)cc1)C(=O)N[C@@H](CC(C)C)C(=O)N[C@H](C(=O)N[C@@H](CCC(=O)O)C(=O)NCC(=O)NCC(N)=O)[C@@H](C)CC)[C@@H](C)CC [Example 96] (H-Y[Aib]EGTFTSDK([AEEA-AEEA-γGlu-C20 diacid])SI[αMeL]LDKIAQ[Aib]AFIEYLIEGG-NH2)
EC50 [1]: 0.59 nM
EC50 [2]: 0.712 nM

CC[C@H](C)[C@H](NC(=O)[C@H](CCCCN)NC(=O)[C@H](CC(=O)O)NC(=O)[C@H](CC(C)C)NC(=O)[C@](C)(CC(C)C)NC(=O)[C@@H](NC(=O)[C@H](CO)NC(=O)[C@H](Cc1ccc(O)cc1)NC(=O)[C@H](CC(=O)O)NC(=O)[C@H](CO)NC(=O)[C@@H](NC(=O)[C@H](Cc1ccccc1)NC(=O)[C@@H](NC(=O)CNC(=O)[C@H](CCC(=O)O)NC(=O)C(C)(C)NC(=O)[C@@H](N)Cc1ccc(O)cc1)[C@@H](C)O)[C@@H](C)O)[C@@H](C)CC)C(=O)N[C@@H](C)C(=O)N[C@@H](CCC(N)=O)C(=O)NC(C)(C)C(=O)N[C@@H](C)C(=O)N[C@@H](Cc1ccccc1)C(=O)N[C@H](C(=O)N[C@@H](CCC(=O)O)C(=O)N[C@@H](Cc1ccc(O)cc1)C(=O)N[C@@H](CC(C)C)C(=O)N[C@H](C(=O)N[C@@H](CCCCNC(=O)COCCOCCNC(=O)COCCOCCNC(=O)CC[C@H](NC(=O)CCCCCCCCCCCCCCCCCCC(=O)O)C(=O)O)C(=O)NCC(=O)NCC(N)=O)[C@@H](C)CC)[C@@H](C)CC [Example 97] (H-Y[Aib]EGTFTSDYSI[αMeL]LDKIAQ[Aib]AFIEYLIK([AEEA-AEEA-γGlu-C20 diacid])GG-NH2)
EC50 [1]: 2.18 nM
EC50 [2]: 1.85 nM

CC[C@H](C)[C@H](NC(=O)[C@H](CC(C)C)NC(=O)[C@H](Cc1ccc(O)cc1)NC(=O)[C@H](CCC(=O)O)NC(=O)[C@@H](NC(=O)[C@H](Cc1ccccc1)NC(=O)[C@H](C)NC(=O)C(C)(C)NC(=O)[C@H](CCC(N)=O)NC(=O)[C@H](C)NC(=O)[C@H](CCCCNC(=O)COCCOCCNC(=O)COCCOCCNC(=O)CC[C@H](NC(=O)CCCCCCCCCCCCCCCCCCC(=O)O)C(=O)O)NC(=O)[C@H](CCCCN)NC(=O)[C@H](CC(=O)O)NC(=O)[C@H](CC(C)C)NC(=O)[C@H](CC(C)C)NC(=O)[C@@H](NC(=O)[C@H](CO)NC(=O)[C@H](Cc1ccc(O)cc1)NC(=O)[C@H](CC(=O)O)NC(=O)[C@H](CO)NC(=O)[C@@H](NC(=O)[C@](C)(Cc1ccccc1)NC(=O)[C@@H](NC(=O)CNC(=O)[C@H](CCC(=O)O)NC(=O)C(C)(C)NC(=O)[C@@H](N)Cc1ccc(O)cc1)[C@@H](C)O)[C@@H](C)O)[C@@H](C)CC)[C@@H](C)CC)C(=O)N[C@@H](CCC(=O)O)C(=O)NCC(=O)NCC(N)=O [Example 98] (H-Y[Aib]EGT[αMeF]TSDYSILLDKK([AEEA-AEEA-γGlu-C20 diacid])AQ[Aib]AFIEYLIEGG-NH2)
EC50 [1]: 0.157 nM
EC50 [2]: 0.0718 nM
